How the values were obtained:
human A2AAR = human A2AAR (Homo sapiens, UniProt P29274); conditions: read-out: Affinity (Ki) A2 (A2A), [3H]CGS21680, HEK293, ref Tosh et al. ([15], [21]) and Melman et al. ([14]); cited from earlier work
human A3AR [1] = molecular target: T1, human A3AR (Homo sapiens, UniProt P0DMS8); conditions: cited from earlier work
T1 sequence (P0DMS8 1-318): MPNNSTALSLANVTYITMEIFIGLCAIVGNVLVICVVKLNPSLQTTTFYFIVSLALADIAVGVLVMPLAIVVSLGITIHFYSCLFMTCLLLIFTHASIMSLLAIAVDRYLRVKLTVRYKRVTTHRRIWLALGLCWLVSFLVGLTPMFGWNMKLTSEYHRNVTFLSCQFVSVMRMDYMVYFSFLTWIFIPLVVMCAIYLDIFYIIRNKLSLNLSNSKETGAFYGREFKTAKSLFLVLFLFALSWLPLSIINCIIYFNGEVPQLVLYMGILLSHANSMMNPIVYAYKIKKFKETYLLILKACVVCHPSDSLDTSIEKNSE

human A1AR = molecular target: T2, human A1AR (Homo sapiens, UniProt P30542); conditions: at 10 μM, ref Tosh et al. ([15], [21]) and Melman et al. ([14]); cited from earlier work
T2 sequence (P30542 1-326): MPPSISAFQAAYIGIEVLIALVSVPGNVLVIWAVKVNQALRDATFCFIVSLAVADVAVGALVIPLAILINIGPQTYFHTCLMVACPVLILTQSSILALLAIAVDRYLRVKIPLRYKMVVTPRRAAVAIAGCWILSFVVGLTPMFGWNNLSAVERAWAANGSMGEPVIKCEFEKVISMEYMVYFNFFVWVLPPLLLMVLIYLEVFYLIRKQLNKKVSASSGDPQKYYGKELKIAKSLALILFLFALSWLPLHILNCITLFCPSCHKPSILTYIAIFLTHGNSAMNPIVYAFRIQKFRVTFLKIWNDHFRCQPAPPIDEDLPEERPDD

human A3AR [2] = molecular target: T1, human A3AR; assay: Radioligand binding at human A3AR; conditions: human ARs
human P2Y14 receptor = molecular target: T3, human P2Y14 receptor (Homo sapiens, UniProt Q15391); conditions: read-out: Potency at the P2Y14 receptor in the same assay; C6 cells expressing the human P2Y14 receptor; cited from earlier work
T3 sequence (Q15391 1-338): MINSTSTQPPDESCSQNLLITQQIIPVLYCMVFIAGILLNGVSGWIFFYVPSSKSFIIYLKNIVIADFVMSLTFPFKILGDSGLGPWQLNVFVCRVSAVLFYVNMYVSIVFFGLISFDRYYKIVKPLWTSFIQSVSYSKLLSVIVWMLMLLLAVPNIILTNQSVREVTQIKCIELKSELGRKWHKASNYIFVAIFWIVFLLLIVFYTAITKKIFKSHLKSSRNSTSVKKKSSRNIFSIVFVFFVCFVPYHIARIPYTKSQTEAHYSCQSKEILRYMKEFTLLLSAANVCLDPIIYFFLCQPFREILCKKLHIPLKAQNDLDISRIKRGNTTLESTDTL

human A2AAR, sequence (P29274 whole entry): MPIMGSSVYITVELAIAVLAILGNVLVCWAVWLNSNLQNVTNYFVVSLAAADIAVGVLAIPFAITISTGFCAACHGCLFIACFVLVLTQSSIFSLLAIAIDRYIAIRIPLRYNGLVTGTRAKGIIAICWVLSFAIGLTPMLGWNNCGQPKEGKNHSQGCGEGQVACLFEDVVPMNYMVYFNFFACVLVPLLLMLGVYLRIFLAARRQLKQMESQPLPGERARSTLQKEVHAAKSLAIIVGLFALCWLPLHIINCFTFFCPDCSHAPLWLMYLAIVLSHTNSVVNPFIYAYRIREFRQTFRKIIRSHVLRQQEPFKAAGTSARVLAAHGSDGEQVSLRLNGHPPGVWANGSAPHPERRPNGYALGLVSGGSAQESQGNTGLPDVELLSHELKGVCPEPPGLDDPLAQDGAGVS

| Selectivity for the A3AR in comparison to the A1AR (human A3AR [2]) [fold] | Structure (SMILES) | Ki (human A2AAR) [nM] | Selectivity for the A3AR (human A3AR [1]) | % inhibition of radioligand binding A1 (human A1AR) | EC50 (human P2Y14 receptor) [nM] |
| --- | --- | --- | --- | --- | --- |
|  | CNC(=O)[C@@]12C[C@@H]1[C@@H](n1cnc3c(NCc4cccc(Cl)c4)nc(Cl)nc31)[C@H](O)[C@@H]2O [Compound 2] | 2300 ± 100 |  |  |  |
| > 500 | CNC(=O)[C@@]12C[C@@H]1[C@@H](n1cnc3c(NCc4cccc(Cl)c4)nc(C#CCCCCc4cn(CCNC(C)=O)nn4)nc31)[C@H](O)[C@@H]2O [Compound 4a] | 2440 ± 320 | at least 100 fold | (12±4%) at 10 μM |  |
|  | O=C(O)[C@H]1O[C@H](OP(=O)(O)OP(=O)(O)OC[C@H]2O[C@@H](n3ccc(=O)[nH]c3=O)[C@H](O)[C@@H]2O)[C@H](O)[C@@H](O)[C@@H]1O [UDPGA, uridine-5′-diphosphoglucuronic acid] |  |  |  | 200 to 300 |
|  | C#CCCCCC#Cc1nc(NCc2cccc(Cl)c2)c2ncn([C@H]3[C@H](O)[C@H](O)[C@]4(C(=O)NC)C[C@H]34)c2n1 [Compound 3a] |  |  | (31±2%) at 10 μM |  |
